Assay results published in patent US5770363A, “Methods for diagnosing human male infertility” (priority 1995, dated 1998).
“And” between values parts separate entries of the source, which are not always exact repeats. Equal entries are not always repeated. “Also recorded” adds a separate entry of the source.

Assays:
[1] = system: permeabilized human sperm; assay: DTT (XEIM) pretreatment of permeabilized human sperm before HSAA; format: cell-based; details: 50 mM DTT in XEIM, 45 minutes on ice
Method: On the day that the diagnostic method is to be performed, the samples are incubated for 30 minutes at 37° C.; each sample is then suspended in 10 ml of nuclear isolation medium (NIM, 200 mM sucrose, 2.4 mM MgCl2, 10 mM Tris-Hcl and 5 mM maleic acid, pH 7.4). A sperm count is taken and an aliquot (containing 20 million sperm) is pelleted in a centrifuge for 10 minutes at 400×g, then resuspended in 10 ml of NIM containing 0.05% lysolecithin and 1 μg/ml soybean trypsin inhibitor. The mixture is kept at room temperature for 5 minutes and the sperm repelleted as before, then washed, first in NIM with 3% BSA and then with NIM containing 0.4% BSA, as described by Lohka and Masui^1. Sperm will finally be suspended in Xenopus Extract Isolation Medium (XEIM, 10 mM Tris-HCL, pH 7.5, 1.5 mM MgCl2, 100 mM KCl and 50 mM DTT) at a concentration of 25,000 sperm/μl and kept on ice (between 0° C. and 4° C.) for 45 minutes before mixing with the frog egg extract. […] Such may be the result of reducing the protamines that in mammalian sperm are cross-linked by intermolecular disulfide bonds.^67 […]

[2] = system: male reproductive system; details: in vivo; cited from earlier work
[3] = system: human sperm nuclei (chromatin decondensation); assay: Human sperm activation assay (HSAA): chromatin decondensation of chemically treated, permeabilized human sperm in Xenopus laevis egg extract; format: cell-based; details: for effect on sperm chromatin decondensation, in words (SEGS): SEGS-treated human sperm in vitro; for effect on decondensation, in words (hydroxylamine alone): 5 μM hydroxylamine; for reversal of SEGS crosslinks / restoration of decondensation, in words: SEGS-treated sperm, then hydroxylamine
[4] = system: DNA polymerase alpha; details: cited from earlier work
[5] = system: human sperm nuclei; details: extract containing aphidicolin; cited from earlier work
[6] = system: human sperm nuclei; assay: HSAA with frog egg extract ± aphidicolin (decondensation, recondensation, DNA synthesis of sperm nuclei); format: cell-based
Method: A HSAA will be set up using normal control sperm. After addition of the sperm to the egg extract containing BrdUrd (10 μM, 92) in place of ^3 H-TTP, aliquots will be taken at 15 minute time intervals throughout the 3 hours of the HSAA, with cytopreps made as previously described. However, instead of performing autoradiography, the BrdUrd staining protocol of Royere et al (1988)^131, which reference is specifically incorporated herein by reference for this purpose, will be used. The cytopreps will be fixed in cold methanol-acetic acid (3:1 v/v) followed by an RNase treatment.
The procedure requires that the DNA be partially denatured to expose incorporated BrdUrd to the specific antibody. The anti-BrdUrd antibodies that have been developed so far only bind BrdUrd in single-stranded DNA. The DNA-denaturing step will be done by placing the cytoprep slides in Copeland jars containing distilled water at 95° C. for 10 minutes. The slides will then be transferred into Copeland jars containing ice cold distilled water for 2 minutes and the sperm nuclei stained using anti-BrdUrd antibody (Boehringer Mannheim, mouse IgG) in PBS as the manufacturer's recommended dilution, followed by rhodamine-conjugated Goat anti-mouse IgG. The stained nuclei will be analyzed individually in our image analysis system.
Aphidicolin is described in Ikegami et al (1978)^101. This study will use sperm shown previously to respond normally in the HSAA.
Fluorescence intensities will be determined as previously described and plotted as fluorescence units above background fluorescence.
We will run a duplicate HSAA±aphidicolin (10 μg/ml), except minus tritiated thymidine triphosphate. After incubation, the sperm will be washed in PBS, fixed with 70% ethanol, centrifuged, and the fixative removed. The sperm will be resuspended in one volume of pretreatment solution (0.2M citric acid and 0.5% Tween 20) and incubated at RT for 20 minutes with gentle shaking. Subsequently, 9 volumes of the staining solution containing […] hydrogen phosphate and 5 μM 4', 6-diamidino-2-phenylindole (DAPI) will be added to raise the pH to ~7.0 and stain the DNA. The stained cells are stable for 24-48 hours, so can be shipped and/or transported by PI to Dr. Manimekalai's Laboratory where we will obtain flow cytometric histograms of the DNA content of the sperm nuclei. […] Estimated DNA synthesis for the sperm nuclei incubated in extract containing aphidicolin will be determined, and determine if it is in the 20-30% range (observed using the autoradiographic approach) when compared to the estimated DNA synthesis for the sperm nuclei incubated in extract without aphidicolin. […] Staining approaches that can be followed by quantitative flow cytometry include the use of Hoechst 33342 (64) and acridine orange (96).

[7] = system: rats; details: cited from earlier work

O[C@H](CS)[C@H](O)CS (racemic) [DTT, Dithiothreitol]
effect of pretreatment on decondensation and DNA synthesis events [1]: enhance the decondensation and DNA synthesis "activation" events

CS(=O)(=O)OCCCCOS(C)(=O)=O [Busulfan]
male reproductive toxicity, in words [2]: kills reserve and differentiating operamatogonia and reserve stem cell populations in the testis

O=C(CCC(=O)ON1C(=O)CC(S(=O)(=O)O)C1=O)OCCOC(=O)CCC(=O)ON1C(=O)CC(S(=O)(=O)O)C1=O (stereo not drawn) [SEGS]
inhibition at 3400 µM ([3]; Homo sapiens, Sperm, 3.4 mM SEGS, read-out: sperm in which decondensation was prevented): > 75%
effect on sperm chromatin decondensation, in words (SEGS) [3]: abnormal decondensation responses; also recorded: abnormal chromatin decondensation; also recorded: did not decondense; also recorded: do not decondense
effect on sperm chromatin decondensation, in words (SEGS) ([3]; listed as SULFO-EGS): block decondensation
level to which decondensation is inhibited ([3]; as low as, permeabilized sperm): 20 % of the control

O=C(O)c1cc(/N=N/c2ccc(S(=O)(=O)Nc3ccccn3)cc2)ccc1O [Sulfasalazine]
male reproductive toxicity, in words [2]: reduced sperm count and fertilizing capability affected in treated patients

C[C@@]1(CO)[C@H](O)CC[C@@]2(C)[C@H]1CC[C@H]1C[C@@H]3C[C@@]12CC[C@]3(O)CO [aphidicolin]
inhibition of DNA polymerase alpha [4]: known inhibitor of DNA polymerase alpha
DNA synthesis (previously demonstrated, ref. 17) [5]: blocked
decondensation of sperm nuclei (previously demonstrated, ref. 17) [5]: normal
recondensation of sperm nuclei (previously demonstrated, ref. 17) [5]: normal
% labelled nuclei in extract containing aphidicolin / % labelled nuclei without aphidicolin × 100, expected ([6]; aphidicolin 10 μg/ml, 2 hours, autoradiography): 20-30%
DNA synthesis ([6]; extract containing aphidicolin): blocked
decondensation of sperm nuclei ([6]; extract containing aphidicolin): normal
recondensation of sperm nuclei ([6]; extract containing aphidicolin): normal

O=P1(N(CCCl)CCCl)NCCCO1 (stereo not drawn) [cyclophosphamide]
effect on pre- and postimplantation loss [7]: increasing pre- and postimplantation loss
decondensation of sperm from treated rats ([7]; six weeks treatment): do not decondense

NO [hydroxylamine]
effect on decondensation, in words (hydroxylamine alone) [3]: normal decondensation; also recorded: no effect on decondensation
sperm decondensed, hydroxylamine given alone ([3]; 5 μM hydroxylamine 5 hours, pH 8.5, 15 minutes in the extract): 92.0±2.8%
effect on decondensation, in words (hydroxylamine alone) ([3]; listed as Hydroxylamine): no effect
sperm decondensed after crosslinking with SEGS and then treatment with hydroxylamine ([3]; 3.4 mM SEGS 30 min, then 5 μM hydroxylamine 5 hours, 15 minutes in the extract): 76% and 76.0±5.9%
reversal of SEGS crosslinks / restoration of decondensation, in words [3]: restored, normal decondensation; also recorded: able to remove the crosslinker; also recorded: able to reverse most of the crosslinks; also recorded: reversed the damage
reversal of SEGS crosslinks / restoration of decondensation, in words ([3]; listed as Hydroxylamine): restore normal decondensation
effect on decondensation, in words (higher hydroxylamine concentrations) ([3]; hydroxylamine higher than 5 μM): adverse effect on decondensation
